From US4401677A, “Enkephalinase inhibitors” (E. R. Squibb & Sons, Inc., priority 1981, dated 1983)

Legend:
[1] = biological target: T1, enkephalinase purified from membrane fractions of sheep corpus striatum (Ovis aries, UniProt A0ACI6S0K5); assay: inhibition of cleavage of [^3 H-Tyr^1, Leu^5 ]-enkephalin by purified enkephalinase (radiochromatographic method); assay type: biochemical; details: 70 nM substrate, pH 7.0, 15 minutes at 37°; called I50
T1 sequence (A0ACI6S0K5 2-750): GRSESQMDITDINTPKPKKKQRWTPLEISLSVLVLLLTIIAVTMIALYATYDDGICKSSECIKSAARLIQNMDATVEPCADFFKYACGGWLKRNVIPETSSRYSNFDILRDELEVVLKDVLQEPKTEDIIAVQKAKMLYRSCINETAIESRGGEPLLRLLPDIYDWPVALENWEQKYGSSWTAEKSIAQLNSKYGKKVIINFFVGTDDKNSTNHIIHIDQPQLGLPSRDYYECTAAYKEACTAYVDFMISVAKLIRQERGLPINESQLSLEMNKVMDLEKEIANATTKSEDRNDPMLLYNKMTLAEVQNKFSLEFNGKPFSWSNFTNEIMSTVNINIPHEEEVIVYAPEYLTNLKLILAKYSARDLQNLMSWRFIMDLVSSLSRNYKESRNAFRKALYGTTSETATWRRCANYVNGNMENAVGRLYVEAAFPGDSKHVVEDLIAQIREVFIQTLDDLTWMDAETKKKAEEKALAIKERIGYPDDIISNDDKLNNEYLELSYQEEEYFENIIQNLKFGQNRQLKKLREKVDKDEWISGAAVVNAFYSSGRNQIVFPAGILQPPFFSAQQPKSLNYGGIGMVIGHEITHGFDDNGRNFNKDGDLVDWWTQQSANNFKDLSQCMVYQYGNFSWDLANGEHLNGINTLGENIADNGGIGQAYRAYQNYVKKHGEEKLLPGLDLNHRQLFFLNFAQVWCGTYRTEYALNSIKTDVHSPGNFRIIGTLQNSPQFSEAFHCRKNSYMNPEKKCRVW
Protocol: Frozen sheep striatia were homogenized in 20 volumes of 50 mM Tris (i.e., 2-amino-2-hydroxymethyl-1,3-propanediol)-hydrochloric acid buffer, pH 7.7, and centrifuged at 37,000×g. for 15 minutes. The sedimented material (membrane fraction), after being washed three times by resuspension and recentrifugation, was solubilized by stirring with half the original volume of 50 mM Tris-hydrochloric acid buffer, pH 7.7, containing 1% Triton X-100 (i.e., polyethylene glycol p-isooctylphenyl ether) nonionic detergent, followed by centrifugation for 2 hours at 37,000×g. […] Protein was eluted from the column with a one liter gradient of 0-0.4 M sodium chloride in the same buffer mixture, with 8.7 ml. fractions being collected.
Activity of the enzyme for purification and inhibitor studies was determined by the following radiochromatographic method. […] An aliquot of 0.01 ml. of acidified reaction mixture was spotted onto a Whatman LK 50 silica gel thin-layer chromatography plate along with the appropriate peptide standards. After development of the plate in a solvent composed of isopropanol:ethyl acetate:5% acetic acid (2:2:1), the spots corresponding to Tyr, Tyr-Gly, Tyr-Gly-Gly, and unreacted enkephalin (Tyr-Gly-Gly-Phe-Leu), as visualized with ninhydrin reaction, were scraped from the plate, and the incorporated radioactivity was counted in a liquid scintillation counter.

enkephalinase = details: cited from earlier work

| SMILES | IC50 [1] [nM] | inhibitor of enkephalinase in vitro (enkephalinase) |
| --- | --- | --- |
| CC(CS)C(=O)N[C@@H](CCCNC(=N)N)C(=O)O (mixture of isomers) [Ex. 1, N-(DL-3-Mercapto-2-methyl-1-oxopropyl)-L-arginine] | 150 |  |
| N=C(N)NCCC[C@H](NC(=O)C(CS)Cc1ccccc1)C(=O)O (mixture of isomers) [Ex. 2, N-[DL-2-(Mercaptomethyl)-1-oxo-3-phenylpropyl]-L-arginine] | 85 |  |
| CC(CS)C(=O)N[C@@H](Cc1ccc(O)c(O)c1)C(=O)O (mixture of isomers) [Ex. 5, 3-Hydroxy-N-(DL-3-mercapto-2-methyl-1-oxopropyl)-L-tyrosine] | 5 |  |
| CC(C)CC(CS)C(=O)N[C@@H](CCCNC(=N)N)C(=O)O (mixture of isomers) [Ex. 7, (±)-N^2-[2-(Mercaptomethyl)-4-methyl-1-oxopentyl]-L-arginine] | 30 |  |
| O=C(O)CNC(=O)C(CS)Cc1ccccc1 (racemic) [thiorphan, [(DL-3-mercapto-2-benzylpropanoyl)]-glycine] |  | inhibitor of enkephalinase in vitro in nanomolar concentration |

Continued by falling IC50 [1], values first:

| IC50 [1] [nM] | SMILES | inhibitor of enkephalinase in vitro (enkephalinase) |
| --- | --- | --- |
| 5 | CC(CS)C(=O)N[C@@H](Cc1c[nH]c2ccccc12)C(=O)O (mixture of isomers) [Ex. 3, N-(DL-3-Mercapto-2-methyl-1-oxopropyl)-L-tryptophan] |  |
| 2.5 | CC(CS)C(=O)N[C@@H](Cc1ccc(O)cc1)C(=O)O (mixture of isomers) [Ex. 4, N-(DL-3-Mercapto-2-methyl-1-oxopropyl)-L-tyrosine] |  |
| 2.5 | C[C@H](CS)C(=O)N[C@@H](Cc1ccc(O)c(O)c1)C(=O)O [Ex. 6, 3-Hydroxy-N-(D-3-mercapto-2-methyl-1-oxopropyl)-L-tyrosine] |  |
